From US8673594B2, “Methods for stimulating nervous system regeneration and repair by regulating arginase I and polyamine synthesis” (Research Foundation of City University of New York, priority 2000, dated 2014)

Experiments:
arginase = target: T1, arginase (Rattus norvegicus, UniProt P07824); settings: cited from earlier work
T1 sequence (P07824 1-323): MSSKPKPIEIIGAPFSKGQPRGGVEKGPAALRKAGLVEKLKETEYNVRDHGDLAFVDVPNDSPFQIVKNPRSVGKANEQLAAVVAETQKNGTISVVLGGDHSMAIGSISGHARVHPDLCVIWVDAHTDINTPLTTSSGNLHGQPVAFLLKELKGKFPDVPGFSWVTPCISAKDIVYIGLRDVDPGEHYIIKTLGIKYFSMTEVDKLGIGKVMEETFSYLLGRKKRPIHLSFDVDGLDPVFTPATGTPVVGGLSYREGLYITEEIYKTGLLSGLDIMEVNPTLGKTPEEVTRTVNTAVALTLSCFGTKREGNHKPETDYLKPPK

[1] = system: cerebellar neurons on purified CNS myelin; test: Neurite outgrowth of cerebellar neurons on purified CNS myelin substrate; type: cell-based
Protocol: Isolated cerebellar neurons at a density of 20,000 neurons per well were plated onto a substrate of purified CNS myelin and cultured overnight before being fixed and immunostained for GAP43. The length of the longest neurite per neuron from 180-200 neurons was measured and results are the average length+/−SEM. Where indicated, dibutyryl cAMP (dbcA) at 1 mM in the presence or absence of the inhibitor of transcription, 5,6-dichloro-1-b-D-ribofuranosylbenzimidazole (DRB) at 5 μM, was added to each culture. (B) Cerebellar neurons (1×10^6) were plated onto poly-L-lysine and cultured overnight with brain-derived neurotrophic factor (BDNF) at 200 ng/ml, (termed priming) in the presence or absence of DRB at 5 μM, before being transferred to the CNS myelin substrate.
The longest neurite from at least 180-200 neurons were measured. Results are shown as the mean neurite length+/−SEM.
(§1) After further incubation, neurons were fixed and immunostained for GAP43. The longest neurite from each neuron for 180-200 neurons were measured. Results are shown as the mean neurite length+/−SEM.
Primed neurons were transferred to either MAG-expressing or control CHO cells (A) or a substrate of CNS myelin (B) for further incubation. Neurons were then fixed and immunostained for GAP43. The longest neurite from each neuron was measured for 180-200 neurons.
Trypsinization was stopped by addition of 5 ml DMEM containing 10% fetal calf serum (FCS) and cells were centrifuged at 800 rpm for 6 min. […] The ganglia were triturated with a fire-polished Pasteur pipette. […] Cells were counted with a Coulter counter.
The neurite outgrowth assay was carried out by adding 5×10^4 neurons to the immobilized myelin substrate or 2×10^4 neurons to the CHO cell monolayers. Briefly, confluent monolayers of control and MAG-expressing CHO cells were established over a 24-hour (h) period in individual chambers of an 8-well tissue culture slide (Lab-Tek). […] Culture medium was SATO containing 2% FCS.
GAP43 antibody was detected by staining with Texas Red and arginase antibody was detected with anti-biotin secondary antibody followed by Texas Red-conjugated streptavidin.
After periods of time as indicated, the co-cultures were fixed for 30 min with 4% paraformaldehyde and permeabilized with ice-cold methanol for 2 min. […] After three more washes, the slides were mounted in Permfluor (Baxter) and viewed with a Zeiss fluorescent microscope. The length of the longest neurite for each GAP43-positive neuron was determined using the Biological Detection System image analysis program (Pittsburgh).

[2] = system: cerebellar neurons on MAG-expressing CHO cells; test: Neurite outgrowth of cerebellar neurons on MAG-expressing or control CHO cells; type: cell-based
Protocol: FIG. 2: Improved Axonal Growth on MAG Induced By Elevating cAMP Levels is Transcription-Dependent. (A) Isolated cerebellar neurons at a density of 20,000 neurons per well were plated onto a monolayer of either MAG-expressing Chinese hamster ovary (CHO) cells (striped bars) or control CHO cells (black bars) and cultured overnight before being fixed and immunostained for GAP43 to visualize the neurites. The length of the longest neurite per neuron, from 180-200 neurons, was measured and results are the average length+/−SEM. Where indicated, dibutyryl cAMP (dbcA) at 1 mM in the presence or absence of the inhibitor of transcription, 5,6-dichloro-1-b-D-ribofuranosylbenzimidazole (DRB) at 5 μM, was added to each culture. (B) Cerebellar neurons (1×10^6) were plated onto poly-L-lysine and cultured overnight with brain-derived neurotrophic factor (BDNF) at 200 ng/ml, (termed priming) in the presence or absence of DRB at 5 μM, before being transferred to the CHO cell monolayers.
FIG. 6: An Ornithine Decarboxylase (ODC) Inhibitor Abrogates the Blocking Effect of dbcAMP on the Inhibition of Axonal Outgrowth by MAG and Myelin. […] The longest neurite from at least 180-200 neurons were measured. Results are shown as the mean neurite length+/−SEM.
as §1
FIG. 8: An Inhibitor Of ODC Blocks The Priming Effects Of GDNF On The Inhibition By MAG. […] After further incubation, neurons were fixed and immunostained for GAP43. The longest neurite from each neuron for 180-200 neurons were measured. Results are shown as the mean neurite length±SEM.
Primed neurons were transferred to either MAG-expressing or control CHO cells (A) or a substrate of CNS myelin (B) for further incubation. Neurons were then fixed and immunostained for GAP43. The longest neurite from each neuron was measured for 180-200 neurons. Results are shown as the percentage of control. […]
Neurons were isolated essentially as described in Doherty at al., Nature, 343, pp. 464-66 (1990); Neuron, 5, pp. 209-19 (1990); and Kleitman at al., Culturing Nerve Cells, pp. 337-78, MIT Press, Cambridge, Mass./London, England (G. Banker and K Goslin, Eds.) (1991). Briefly, for animals up to nine days of age, the cerebellum, from two animals were removed and combined in 5 ml of 0.025% trypsin in PBS, triturated, and incubated for a further 10 minutes (min.) at 37° C. Trypsinization was stopped by addition of 5 ml DMEM containing 10% fetal calf serum (FCS) and cells were centrifuged at 800 rpm for 6 min. […] For older DRG neurons, ganglia were removed from two animals and incubated in 5 ml of Sat medium containing 0.025% trypsin and 0.15% collagenase type I (Worthington) for 30 min. at 37° C. The ganglia were triturated with a fire-polished Pasteur pipette. Trypsinization was stopped by adding 5 ml of DMEM containing 10% FCS, centrifuged at 800 rpm for 6 min, and resuspended in 2 ml of SAT (DeBellard et al., 1996). Cells were counted with a Coulter counter.
Chinese hamster ovary (CHO) cells deficient in the dihydrofolate reductase (dhfr) gene (Urlaub and Chasin, Proc. Natl, Acad, Sci. 77, pp. 4216-20 (1980)) were transfected with a MAG-cDNA expression plasmid with the dhfr gene and the L-MAG cDNA, cells with multiple copies of dbfr were selected by growing in increasing concentrations of methotrexate, and the expression of MAG by individual transfected CHO cell lines characterized as described in Mukhopadhyay et al., Neuron, 13, pp. 757-67 (1994), which is incorporated herein by reference. The MAG-expressing transfected CHO cell line) (“CHO-MAG2”) in that publication was deposited on Jun. 27, 1996 with the American Type Culture Collection (ATCC) (Rockville, Md.) according to the provisions of the Budapest Treaty, and was assigned the ATCC accession number designated: ATCC CRL-12145. […]

[3] = system: DRG neurons on MAG-expressing CHO cells; test: Neurite outgrowth of DRG neurons on MAG-expressing or control CHO cells; type: cell-based; settings: P0-1 DRG neurons, DFMO 1 mM
Protocol: After overnight incubation, neurons were fixed and immunostained for GAP 43. The longest neurite from each of 120-150 DRG neurons were measured. Results are shown as the mean neurite length+/−SEM.
FIG. 14: Over-Expression Of Arginase In Older DRG Neurons By Adenovirus-Mediated Gene Transfer Is Sufficient To Overcome Inhibition By MAG. Postnatal day 5 DRG neurons (0.5×10^6) were plated in 24-well plates and infected with adenovirus containing ArgI-GFP or GFP alone. Alter overnight culture, infected neurons were transferred to MAG-expressing (stippled bars) or control (black bars) CHO cells for neurite outgrowth. Neurons were fixed and immunostained for GAP43. The neurons with double staining of GAP43 and GFP were considered as positively infected. The length of the longest neurite per neuron was measured for 120-150 positively infected neurons. Results are shown as the average neurite length+/−SEM of GFP-infected (GFP) or ArgI-infected (ArgI) neurons grown on MAG.
Neurons were isolated essentially as described in Doherty at al., Nature, 343, pp. 464-66 (1990); Neuron, 5, pp. 209-19 (1990); and Kleitman at al., Culturing Nerve Cells, pp. 337-78, MIT Press, Cambridge, Mass./London, England (G. Banker and K Goslin, Eds.) (1991). […] Cells were counted with a Coulter counter. […]

[4] = putrescine in the culture, no priming

N[C@@H](CCCCB(O)O)C(=O)O [ABH, 2(S)-amino-6-boronohexanoic acid]
arginase inhibitor potency, in words (arginase): most potent inhibitor of arginase identified to date

NCCCCN [putrescine]
putrescine concentration at which the blocking effect on myelin saturates ([1]; overnight priming): about 50 μM
increase in axonal outgrowth on CNS myelin ([1]; priming with putrescine at 10 μM): two-fold
block of inhibition of axonal growth by myelin, putrescine added without priming [1, 4]: only partially blocks
putrescine dose above which the blocking effect on MAG saturates ([2]; overnight priming): higher than 25 μM
effect of putrescine on BDNF priming blocked by DFMO (MAG) ([2]; putrescine (10 mM as printed elsewhere in the source) with DFMO 1 mM and BDNF during priming): restored the priming effect of BDNF
block of inhibition of axonal growth by MAG, putrescine added without priming [2, 4]: only partially blocks

OC[C@H]1O[C@@H](n2cnc3cc(Cl)c(Cl)cc32)[C@H](O)[C@@H]1O [DRB, 5,6-dichloro-1-b-D-ribofuranosylbenzimidazole]
effect of transcription inhibitor on the dbcAMP/BDNF block of MAG inhibition ([2]; DRB 5 μM with dbcAMP 1 mM or BDNF 200 ng/ml priming): neither dbcAMP nor BDNF block inhibition

Cl.NCCCC(N)(C(=O)O)C(F)F (racemic) [DFMO, DL-a-difluoromethyl-ornithine hydrochloride]
effect alone on neurite growth on control CHO cells, young DRG neurons [3]: no effect
effect on promotion of axonal growth by MAG in young DRG neurons ([3]; overnight): completely abolished
effect on the positive (priming) effect of BDNF on axonal growth in the presence of MAG ([2]; DFMO 1 mM during overnight priming with BDNF 200 ng/ml): completely abrogated
effect on the positive (priming) effect of GDNF on axonal growth in the presence of MAG ([2]; DFMO 1 mM during overnight priming with GDNF 200 ng/ml): completely abrogated
effect on the dbcAMP block of inhibition by MAG ([2]; DFMO 1 mM with dbcAMP 1 mM): lost
effect alone on neurite growth on control CHO cells ([2]; DFMO 1 mM, control CHO cells): no significant effect
effect alone on inhibition by MAG ([2]; DFMO 1 mM, no dbcAMP): no significant effect
